Measured values reported in PubChem BioAssay AID1745844 (Carcinogenic Potency Database (CPDB), 2022).
Activity calls are given as the source filed them. How the calls were made is not given here.

Tested on: rodent lifetime carcinogenesis bioassay, tumor incidence TD50
Assay: carcinogenic potency in animals, long-term in vivo studies, CPDB compilation (AID 1745844)

O=CNNc1nc(-c2ccc([N+](=O)[O-])o2)cs1
25.6 mg/kg/day: TD50 (mouse, strain Swiss, females, in feed, site: all sites, lesion: leukemia, dosed 33 weeks, study length 52 weeks)
2.42 mg/kg/day: TD50 (mouse, strain Swiss, females, in feed, site: any site (literature study), lesion: several types, types named in the paper, dosed 33 weeks, study length 52 weeks)
active: TD50 (hamster, strain Syrian Golden, males, in feed, site: forestomach, lesion: squamous-cell papilloma, dosed 48 weeks, study length 70 weeks) 25.1 mg/kg/day | TD50 (hamster, strain Syrian Golden, males, in feed, site: urinary bladder, lesion: transitional-cell carcinoma, dosed 48 weeks, study length 70 weeks) 16.6 mg/kg/day | TD50 (mouse, strain Swiss, females, in feed, site: all sites, lesion: lymphocytic leukemia, dosed 33 weeks, study length 52 weeks) 11.4 mg/kg/day | TD50 (mouse, strain Swiss, females, in feed, site: forestomach, lesion: papilloma, dosed 33 weeks, study length 52 weeks) 13.8 mg/kg/day | TD50 (mouse, strain Swiss, females, in feed, site: forestomach, lesion: squamous-cell papilloma, dosed 33 weeks, study length 52 weeks) 8.85 mg/kg/day | TD50 (rat, strain Buffalo, females, in feed, site: kidney, lesion: several types, types named in the paper, dosed 46 weeks, study length 64 weeks) 17.5 mg/kg/day | TD50 (rat, strain Buffalo, females, in feed, site: kidney, lesion: tubular adenoma, dosed 46 weeks, study length 64 weeks) 98.6 mg/kg/day | TD50 (rat, strain Buffalo, females, in feed, site: kidney, lesion: tubular-cell adenocarcinoma, dosed 46 weeks, study length 64 weeks) 44.1 mg/kg/day | TD50 (rat, strain Buffalo, females, in feed, site: liver, lesion: cystadenoma, dosed 46 weeks, study length 64 weeks) 39.1 mg/kg/day | TD50 (rat, strain Buffalo, females, in feed, site: mammary gland, lesion: adenocarcinoma, dosed 46 weeks, study length 64 weeks) 13.1 mg/kg/day | TD50 (rat, strain Buffalo, females, in feed, site: mammary gland, lesion: adenofibroma, dosed 46 weeks, study length 64 weeks) 80.5 mg/kg/day | TD50 (rat, strain Buffalo, females, in feed, site: mammary gland, lesion: several types, types named in the paper, dosed 46 weeks, study length 64 weeks) 5.54 mg/kg/day | TD50 (rat, strain Holtzman albino (Sprague-Dawley derived), females, in feed, site: cecum, lesion: adenocarcinoma, dosed 44 weeks, study length 60 weeks) 210 mg/kg/day | TD50 (rat, strain Holtzman albino (Sprague-Dawley derived), females, in feed, site: ear canal, lesion: squamous-cell carcinoma, dosed 44 weeks, study length 60 weeks) 100 mg/kg/day | TD50 (rat, strain Holtzman albino (Sprague-Dawley derived), females, in feed, site: kidney, lesion: adenoma, dosed 44 weeks, study length 60 weeks) 17.6 mg/kg/day | TD50 (rat, strain Holtzman albino (Sprague-Dawley derived), females, in feed, site: kidney, lesion: carcinoma, dosed 44 weeks, study length 60 weeks) 78.5 mg/kg/day | TD50 (rat, strain Holtzman albino (Sprague-Dawley derived), females, in feed, site: mammary tissue, wider than the gland, lesion: one or several types, types not named, dosed 44 weeks, study length 60 weeks) 5.5 mg/kg/day | TD50 (rat, strain Holtzman albino (Sprague-Dawley derived), females, in feed, site: small intestine, lesion: adenocarcinoma, dosed 44 weeks, study length 60 weeks) 78.5 mg/kg/day | TD50 (rat, strain Sprague-Dawley, females, in feed, site: all sites, lesion: lymphoblastic lymphoma, dosed 45 weeks, study length 75 weeks) 184 mg/kg/day | TD50 (rat, strain Sprague-Dawley, females, in feed, site: kidney/pelvis, lesion: transitional-cell carcinoma, dosed 45 weeks, study length 75 weeks) 137 mg/kg/day | TD50 (rat, strain Sprague-Dawley, females, in feed, site: kidney, lesion: several types, types named in the paper, dosed 46 weeks, study length 64 weeks) 9.96 mg/kg/day | TD50 (rat, strain Sprague-Dawley, females, in feed, site: kidney, lesion: tubular adenoma, dosed 46 weeks, study length 64 weeks) 50.7 mg/kg/day | TD50 (rat, strain Sprague-Dawley, females, in feed, site: kidney, lesion: tubular-cell adenocarcinoma, dosed 46 weeks, study length 64 weeks) 33.9 mg/kg/day | TD50 (rat, strain Sprague-Dawley, females, in feed, site: liver, lesion: cystadenoma, dosed 46 weeks, study length 64 weeks) 43.9 mg/kg/day | TD50 (rat, strain Sprague-Dawley, females, in feed, site: liver, lesion: several types, types named in the paper, dosed 46 weeks, study length 64 weeks) 30.1 mg/kg/day | TD50 (rat, strain Sprague-Dawley, females, in feed, site: mammary gland, lesion: adenocarcinoma, dosed 45 weeks, study length 75 weeks) 3.54 mg/kg/day | TD50 (rat, strain Sprague-Dawley, females, in feed, site: mammary gland, lesion: adenocarcinoma, dosed 46 weeks, study length 64 weeks) 19.5 mg/kg/day | TD50 (rat, strain Sprague-Dawley, females, in feed, site: mammary gland, lesion: adenofibroma, dosed 46 weeks, study length 64 weeks) 52.8 mg/kg/day | TD50 (rat, strain Sprague-Dawley, females, in feed, site: mammary gland, lesion: several types, types named in the paper, dosed 46 weeks, study length 64 weeks) 5.85 mg/kg/day | TD50 (rat, strain Sprague-Dawley, males, in feed, site: kidney/pelvis, lesion: transitional-cell carcinoma, dosed 46 weeks, study length 64 weeks) 69.9 mg/kg/day | TD50 (rat, strain Sprague-Dawley, males, in feed, site: kidney, lesion: several types, types named in the paper, dosed 46 weeks, study length 64 weeks) 5.82 mg/kg/day | TD50 (rat, strain Sprague-Dawley, males, in feed, site: kidney, lesion: tubular adenoma, dosed 46 weeks, study length 64 weeks) 47.6 mg/kg/day | TD50 (rat, strain Sprague-Dawley, males, in feed, site: kidney, lesion: tubular-cell adenocarcinoma, dosed 46 weeks, study length 64 weeks) 19.3 mg/kg/day | TD50 (rat, strain Sprague-Dawley, males, in feed, site: liver, lesion: cystadenoma, dosed 46 weeks, study length 64 weeks) 35.3 mg/kg/day | TD50 (rat, strain Sprague-Dawley, males, in feed, site: mammary gland, lesion: adenofibroma, dosed 46 weeks, study length 64 weeks) 46.2 mg/kg/day
67.1 mg/kg/day: TD50 (mouse, strain Swiss, females, in feed, site: lung, lesion: alveolar-cell carcinoma, dosed 33 weeks, study length 52 weeks)
3.79 mg/kg/day: TD50 (rat, strain Sprague-Dawley, females, in feed, site: any site (literature study), lesion: several types, types named in the paper, dosed 45 weeks, study length 75 weeks)
65.4 mg/kg/day: TD50 (rat, strain Sprague-Dawley, females, in feed, site: forestomach, lesion: squamous-cell papilloma, dosed 45 weeks, study length 75 weeks) | TD50 (rat, strain Sprague-Dawley, females, in feed, site: kidney, lesion: renal-cell carcinoma, dosed 45 weeks, study length 75 weeks)
inactive: TD50 (rat, strain Holtzman albino (Sprague-Dawley derived), females, in feed, site: liver, lesion: hemangioendothelial sarcoma, dosed 44 weeks, study length 60 weeks) 428 mg/kg/day | carcinogen call (rat, strain Sprague-Dawley, females, in feed, site: liver, lesion: one or several types, types not named, dosed 45 weeks, study length 75 weeks) negative

CCCCC/C=C\C/C=C\CCCCCCCC(=O)OC
inactive: carcinogen call (rat, strain Wistar, males, by gavage, site: gastrointestinal tract, lesion: several types, types named in the paper, dosed 30 weeks, study length 87 weeks) negative | carcinogen call (rat, strain Wistar, males, by gavage, site: liver, lesion: one or several types, types not named, dosed 30 weeks, study length 87 weeks) negative

CN(C)CCN(Cc1cccs1)c1ccccc1
inactive: carcinogen call (rat, strain Fischer 344, females, in drinking water, site: liver, lesion: several types, types named in the paper, dosed 82 weeks, study length 130 weeks) negative | TD50 (rat, strain Fischer 344, females, in drinking water, site: thyroid follicle, lesion: several types, types named in the paper, dosed 82 weeks, study length 130 weeks) 487 mg/kg/day | carcinogen call (rat, strain Fischer 344, males, in drinking water, site: liver, lesion: several types, types named in the paper, dosed 82 weeks, study length 130 weeks) negative | carcinogen call (rat, strain Fischer 344, males, in drinking water, site: thyroid follicle, lesion: several types, types named in the paper, dosed 82 weeks, study length 130 weeks) negative
